Measured values published in PMC6435540, “LipG a bifunctional phospholipase/thioesterase involved in mycobacterial envelope remodeling” (Bioscience Reports, 2018).
In brackets after ≈: the same amount, converted by molar mass. Entries after “also recorded” stand apart in the source; their conditions may differ. Read-outs that look alike come from different tables or passages of the source.

What was measured:
M. smegmatis lipGMS::Hyg = experiment: microbe, parasite or virus in culture; type: cell-based; details: for MIC50: Mycolicibacterium smegmatis
[1] = tested on: M. smegmatis lipGMS::Hyg CompMTB; experiment: microbe, parasite or virus in culture; type: cell-based; details: for Fold change compared with WT: MIC50 of lipGMS::Hyg CompMTB strain versus WT; for MIC50: Mycolicibacterium smegmatis
M. smegmatis WT = experiment: REMA susceptibility testing, WT strain
Experimental: Susceptibility testing was performed using the Middlebrook 7H9 broth microdilution method. All assays for each strain were carried out at least in triplicate. MICs against the various M. smegmatis bacterial strains were determined in 96-well flat-bottom Nunclon Delta Surface microplates with lid (Thermo Fisher Scientific) using REMA method [59]. Briefly, log-phase bacteria were diluted to a cell density of 5 × 10^6 cells/ml in 7H9-S medium. […] Growth controls containing no inhibitor (i.e., bacteria only), inhibition controls containing 50 μg/ml kanamycin and sterility controls (i.e. medium only) without inoculation were also included. Plates were incubated at 37°C in a humidity chamber [60] to prevent evaporation for 3–5 days. Then, 20 µl of a 0.02% (w/v) resazurin solution was added to each well, and the plates were incubated at 37°C for color change from blue to pink or violet and for a reading of fluorescence units (FU). Fluorescence corresponding to the resazurin reduction to its metabolite resorufin was quantitated using a Tecan Spark 10M multimode microplate reader (Tecan Group Ltd, France) with excitation at 530 nm and emission at 590 nm. Fluorometric MICs were determined by fitting the RFU% sigmoidal dose–response curves [28, 29] in Kaleidagraph 4.2 software (Synergy Software). MIC values determined as the lowest compound concentrations inhibiting 50% of growth were defined as the MIC50.

[2] = tested on: M. smegmatis lipGMS::Hyg Comp; experiment: microbe, parasite or virus in culture; type: cell-based; details: for Fold change compared with WT: MIC50 of lipGMS::Hyg Comp strain versus WT; for MIC50: Mycolicibacterium smegmatis
rLipGMTB = experiment: Inhibition of rLipGMTB, enzyme-inhibitor pre-incubation method, residual activity on pNP-C6; type: biochemical; details: for xI50: inhibitor molar excess leading to 50% enzyme inhibition; for xI50 / % inhibition xI = 4 / % inhibition xI = 100: 30-min incubation at 25°C, substrate pNP-C6; for % inhibition xI = 4: inhibitor molar excess xI = 4; for % inhibition xI = 100: inhibitor molar excess xI = 100; for Inhibitory effect on rLipGMTB (in words): pure rLipGMTB, molar excess up to xI = 100
[3] = tested on: intramacrophagic M. tuberculosis; parameters: method as in PMID 28924204, PMID 30292819; details: infected macrophages; ref [28],[42]; cited from earlier work
[4] = tested on: extracellular M. tuberculosis; details: cited from earlier work; for Activity against extracellular M. tuberculosis (in words): growth in vitro, ref [28],[42]; for Activity against extracellularly growing M. tuberculosis (in words): ref [27],[28]
[5] = Mycolicibacterium smegmatis, WT strain, REMA, concentration leading to 50% growth inhibition
[6] = WT strain, REMA, concentration leading to 50% growth inhibition

## NNC(=O)c1ccncc1 [INH, isoniazid]
M. smegmatis lipGMS::Hyg
  MIC50: 2.9 µg/mL (≈ 21.1 µM)
[1]
  Fold change compared with WT: ×1.3
  MIC50: 1.9 µg/mL (≈ 13.9 µM)
M. smegmatis WT; [5]
  MIC50: 0.76 µg/mL (≈ 5.54 µM)
M. smegmatis WT; [6]
  MIC50: 1.4 µg/mL (≈ 10.2 µM)
[2]
  Fold change compared with WT: ×1.2
  MIC50: 1.8 µg/mL (≈ 13.1 µM)

## CCCCCCCCCCC1CCP(=O)(OC)OC(C)=C1C(=O)OC (stereo not drawn) [CyC7α]
rLipGMTB
  xI50: 5.0
  % inhibition xI = 4: 47.4 ± 0.81%
  % inhibition xI = 100: 81.4 ± 1.6%
  Inhibitory effect on rLipGMTB (in words): strong dose-dependent inhibition
[3]
  Activity against intramacrophagic M. tuberculosis (in words): active on infected macrophages only

## CC(C)COc1nn(-c2ccc(Oc3ccccc3)cc2)c(=O)o1 [iBpPPOX]
rLipGMTB
  xI50: 14.7
  % inhibition xI = 4: 40.5 ± 3.1%
  % inhibition xI = 100: 60.6 ± 0.22%
[3]
  Activity against intramacrophagic M. tuberculosis (in words): strong activity
[4]
  Activity against extracellular M. tuberculosis (in words): strong activity

## CCCCCCCCCCCCCCCCOP1(=O)OCCC(C(=O)OC)=C(C)O1 (stereo not shown) [CyC17]
M. smegmatis lipGMS::Hyg
  MIC50: 9.6 µg/mL (≈ 21.5 µM)
rLipGMTB
  xI50: 0.98
  % inhibition xI = 4: 66.4 ± 4.5%
  % inhibition xI = 100: 95.4 ± 2.6%
  Inhibitory effect on rLipGMTB (in words): strong dose-dependent inhibition; also recorded: strong inhibitory effect
[3]
  Activity against intramacrophagic M. tuberculosis (in words): no activity
[1]
  Fold change compared with WT: ×1.1
[1]; lipGMS::Hyg CompMTB strain, REMA, concentration leading to 50% growth inhibition, read-out: MIC50
  MIC50: 0.65 µg/mL (≈ 1.46 µM)
M. smegmatis WT; Mycolicibacterium smegmatis
  MIC50: 0.56 µg/mL (≈ 1.25 µM)
[4]
  Activity against extracellular M. tuberculosis (in words): efficiently block M. tuberculosis growth in vitro
  Activity against extracellularly growing M. tuberculosis (in words): only active against extracellularly growing M. tuberculosis strain
[2]; lipGMS::Hyg Comp strain, REMA, concentration leading to 50% growth inhibition, read-out: MIC50
  MIC50: 0.6 µg/mL (≈ 1.34 µM)

## CO[C@H]1/C=C/O[C@@]2(C)Oc3c(C)c(O)c4c(O)c(c(/C=N/N5CCN(C)CC5)c(O)c4c3C2=O)NC(=O)/C(C)=C\C=C\[C@H](C)[C@H](O)[C@@H](C)[C@@H](O)[C@@H](C)[C@H](OC(C)=O)[C@@H]1C [RIF, rifampicin]
M. smegmatis lipGMS::Hyg
  MIC50: 3.3 µg/mL (≈ 4.01 µM)
[1]
  Fold change compared with WT: ×1.3
  MIC50: 0.96 µg/mL (≈ 1.17 µM)
M. smegmatis WT; [5]
  MIC50: 1.4 µg/mL (≈ 1.7 µM)
M. smegmatis WT; [6]
  MIC50: 0.76 µg/mL (≈ 0.924 µM)
[2]
  Fold change compared with WT: ×1.2
  MIC50: 0.89 µg/mL (≈ 1.08 µM)

## CCCCCCCCCCCCC1CCP(=O)(OC)OC(C)=C1C(=O)OC (stereo not drawn) [CyC8β]
rLipGMTB
  xI50: >200
  % inhibition xI = 4: 3.2 ± 0.16%
  % inhibition xI = 100: 32.0 ± 1.5%
  Inhibitory effect on rLipGMTB (in words): very weak inhibitory effects
[3]
  Activity against intramacrophagic M. tuberculosis (in words): active on infected macrophages only

## CCCCCCOc1nn(-c2ccccc2)c(=O)o1 [HPOX]
M. smegmatis lipGMS::Hyg; MIC50 of lipGMS::Hyg strain versus WT
  Fold change compared with WT: 2.2 ×
M. smegmatis lipGMS::Hyg
  MIC50: 18.4 µg/mL (≈ 70.1 µM)
rLipGMTB
  xI50: 2.9
  % inhibition xI = 4: 58.5 ± 1.4%
  % inhibition xI = 100: 93.8 ± 5.7%
  Inhibitory effect on rLipGMTB (in words): strong inhibitory effect
[3]
  Activity against intramacrophagic M. tuberculosis (in words): no activity
M. smegmatis WT; [5]
  MIC50: 8.4 µg/mL (≈ 32 µM)
[4]
  Activity against extracellular M. tuberculosis (in words): efficiently block M. tuberculosis growth in vitro
  Activity against extracellularly growing M. tuberculosis (in words): only active against extracellularly growing M. tuberculosis strain
[2]
  Fold change compared with WT: ~1.5 ×
  MIC50: 12.2 µg/mL (≈ 46.5 µM)

## CCCCCCCCCCC[C@@H](C[C@@H]1OC(=O)[C@H]1CCCCCC)OC(=O)[C@H](CC(C)C)NC=O [Orlistat, reference compound]
M. smegmatis lipGMS::Hyg
  MIC50: 6.5 µg/mL (≈ 13.1 µM)
rLipGMTB
  xI50: 15.2
  % inhibition xI = 4: 10.8 ± 0.17%
  % inhibition xI = 100: 69.5 ± 5.3%
  Inhibitory effect on rLipGMTB (in words): moderate inhibitory activity
[1]
  Fold change compared with WT: ×1.6
  MIC50: 1.6 µg/mL (≈ 3.23 µM)
M. smegmatis WT; [5]
  MIC50: 0.97 µg/mL (≈ 1.96 µM)
[2]
  Fold change compared with WT: ×1.3
  MIC50: 1.2 µg/mL (≈ 2.42 µM)

## CCCCCCCCCCC1CCP(=O)(OC)OC(C)=C1C(=O)OC (stereo not drawn) [CyC7β]
rLipGMTB
  xI50: 48.1
  % inhibition xI = 4: 7.9 ± 0.72%
  % inhibition xI = 100: 57.6 ± 2.0%
  Inhibitory effect on rLipGMTB (in words): very weak inhibitory effects
[3]
  Activity against intramacrophagic M. tuberculosis (in words): strong activity
[4]
  Activity against extracellular M. tuberculosis (in words): strong activity

## COc1nn(-c2cccc(Oc3ccccc3)c2)c(=O)o1 [MmPPOX]
rLipGMTB
  xI50: 3.1
  % inhibition xI = 4: 54.1 ± 1.5%
  % inhibition xI = 100: 82.0 ± 3.8%

## CCCCCCOc1nn(-c2ccc(Oc3ccccc3)cc2)c(=O)o1 [HpPPOX]
rLipGMTB
  xI50: 3.5
  % inhibition xI = 4: 61.8 ± 4.7%
  % inhibition xI = 100: 73.8 ± 1.0%
[3]
  Activity against intramacrophagic M. tuberculosis (in words): active on infected macrophages only
